Results reported in patent US20260274892A1, “MACROCYCLIC BROAD SPECTRUM ANTIBIOTICS” (RQx Pharmaceuticals, Inc., priority 2017, published 2026).

Assays:
[1] = tested on: Methicillin Resistant Staphylococcus aureus strain USA 200; test: Minimum inhibitory concentration (MIC), CLSI broth micro-dilution, S. aureus; assay type: cell-based; conditions: Staphylococcus aureus, MRSA / USA200, MRSA USA 200, cation adjusted Mueller Hinton Broth + 0.002% Tween-80, 35° C., 22 hours
In short: (§1)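 Antibacterial potency is measured as MIC by the CLSI broth dilution method. Bacteria at OD600 0.0005 in Tween-80-supplemented cation-adjusted Mueller Hinton broth face ten twofold compound dilutions for 22 h at 35° C.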

[2] = tested on: Escherichia coli ATCC 25922; test: Minimum inhibitory concentration (MIC), CLSI broth micro-dilution, E. coli; assay type: cell-based; conditions: Escherichia coli, ATCC25922, 22 h
In short: as §1

[3] = Table 6, cation adjusted Mueller Hinton Broth + 0.002% Tween-80, 35° C.
[4] = Table 8, cation adjusted Mueller Hinton Broth + 0.002% Tween-80, 35° C.

SMILES | MIC ([1]; Table 6) [µM] | MIC [2, 3] [µM] | MIC ([1]; Table 8) [µM] | MIC [2, 4] [µM]
CCCCCCc1ccc2nc(C)c(C(=O)N[C@@H](CCN)C(=O)N(C)[C@@H]3C(=O)N[C@@H](C)C(=O)N[C@H](C(=O)NCC#N)Cc4ccc(OCCN)c(c4)-c4cc3ccc4OCCN)cc2c1 (racemic) [Compound 395, rac-(8S,11S,14S)-3,18-bis(2-aminoethoxy)-N-(cyanomethyl)-11-methyl-14-[methyl-[rac-(2S)-4-amino-2-[(6-hexyl-2-methyl-quinoline-3-carbonyl)amino]butanoyl]amino]-10,13-dioxo-9,12-diazatricyclo[13.3.1.12,6]icosa-1(18),2(20),3,5,15(19),16-hexaene-8-carboxamide] | 0.013 | 0.27 |  | 
CCCCc1ccc(Oc2ccc(C(=O)N[C@@H](CCN)C(=O)N(C)[C@@H]3C(=O)N[C@@H](C)C(=O)N[C@H](C(=O)NCC#N)Cc4ccc(OCCN)c(c4)-c4cc3ccc4OCCN)c(Cl)c2)cc1CCCC (racemic) [Compound 378, rac-(8S,11S,14S)-3,18-bis(2-aminoethoxy)-N-(cyanomethyl)-11-methyl-14-[methyl-[rac-(2S)-4-amino-2-[[2-chloro-4-(3,4-dibutylphenoxy)benzoyl]amino]butanoyl]amino]-10,13-dioxo-9,12-diazatricyclo[13.3.1.12,6]icosa-1(18),2(20),3,5,15(19),16-hexaene-8-carboxamide] | 0.031 | 0.38 |  | 
C[C@@H]1NC(=O)[C@@H](N(C)C(=O)[C@H](CCN)NC(=O)c2ccc(-c3ccc(C(C)(C)C)cc3)nc2N)c2ccc(OCCN)c(c2)-c2cc(ccc2OCCN)C[C@@H](C(=O)NCC#N)NC1=O (racemic) [Compound 412, rac-(8S,11S,14S)-3,18-bis(2-aminoethoxy)-N-(cyanomethyl)-11-methyl-14-[methyl-[rac-(2S)-4-amino-2-[[2-amino-6-(4-tert-butylphenyl)pyridine-3-carbonyl]amino]butanoyl]amino]-10,13-dioxo-9,12-diazatricyclo[13.3.1.12,6]icosa-1(18),2(20),3,5,15(19),16-hexaene-8-carboxamide] | 0.023 | 0.5 |  | 
Cc1nc(-c2ccc(OC(C)C)cc2)nc(C)c1C(=O)N[C@@H](CCN)C(=O)N(C)[C@@H]1C(=O)N[C@@H](C)C(=O)N[C@H](C(=O)O)Cc2ccc(O)c(c2)-c2cc1ccc2OCCN (racemic) [Compound 643, rac-(8S,11S,14S)-18-(2-aminoethoxy)-3-hydroxy-11-methyl-14-[methyl-[rac-(2S)-4-amino-2-[[2-(4-isopropoxyphenyl)-4,6-dimethyl-pyrimidine-5-carbonyl]amino]butanoyl]amino]-10,13-dioxo-9,12-diazatricyclo [13.3.1.12,6]icosa-1(18),2(20),3,5,15(19), 16-hexaene-8-carboxylic acid] |  |  | 1.1 | 2.3
CCCCOc1ccc(-c2ncc(C(=O)N[C@@H](CCN)C(=O)N(C)[C@@H]3C(=O)N[C@@H](C)C(=O)N[C@H](C(=O)NCC#N)Cc4ccc(OCCN)c(c4)-c4cc3ccc4OCCN)c(C)n2)cc1Cl (racemic) [Compound 247, rac-(8S,11S,14S)-3,18-bis(2-aminoethoxy)-N-(cyanomethyl)-11-methyl-14-[methyl-[rac-(2S)-4-amino-2-[[2-(4-butoxy-3-chloro-phenyl)-4-methyl-pyrimidine-5-carbonyl]amino]butanoyl]amino]-10,13-dioxo-9,12-diazatricyclo[13.3.1.12,6]icosa-1(18),2(20),3,5,15(19),16-hexaene-8-carboxamide] | 0.016 | 0.19 |  | 
Cc1nc(-c2ccc(C(C)(C)C)cc2)nc(Cl)c1C(=O)N[C@@H](CCN)C(=O)N(C)[C@@H]1C(=O)N[C@@H](C)C(=O)N[C@H](C(=O)NCC#N)Cc2ccc(OCCN)c(c2)-c2cc1ccc2OCCN (racemic) [Compound 421, rac-(8S,11S,14S)-3,18-bis(2-aminoethoxy)-N-(cyanomethyl)-11-methyl-14-[methyl-[rac-(2S)-4-amino-2-[[2-(4-tert-butylphenyl)-4-chloro-6-methyl-pyrimidine-5-carbonyl]amino]butanoyl]amino]-10,13-dioxo-9,12-diazatricyclo[13.3.1.12,6]icosa-1(18),2(20),3,5,15(19),16-hexaene-8-carboxamide] | 0.031 | 0.19 |  | 
Cc1nc(-c2ccc(C3CCCCC3)cc2)ncc1C(=O)N[C@@H](CCN)C(=O)N(C)[C@@H]1C(=O)N[C@@H](C)C(=O)N[C@H](C(=O)NCC#N)Cc2ccc(OCCN)c(c2)-c2cc1ccc2OCCN (racemic) [Compound 233, rac-(8S,11S,14S)-3,18-bis(2-aminoethoxy)-N-(cyanomethyl)-11-methyl-14-[methyl-[rac-(2S)-4-amino-2-[[2-(4-cyclohexylphenyl)-4-methyl-pyrimidine-5-carbonyl]amino]butanoyl]amino]-10,13-dioxo-9,12-diazatricyclo[13.3.1.12,6]icosa-1(18),2(20),3,5,15(19),16-hexaene-8-carboxamide] | 0.016 | 0.13 |  | 
Cc1nc(-c2ccc(C(C)(C)C)cc2)ncc1C(=O)N[C@@H](CCN)C(=O)N(C)[C@@H]1C(=O)NCC(=O)N[C@H](C(=O)NCC#N)Cc2ccc(OCCN)c(c2)-c2cc1ccc2OCCN (racemic) [Compound 476, rac-(8S,14S)-3,18-bis(2-aminoethoxy)-N-(cyanomethyl)-14-[methyl-[rac-(2S)-4-amino-2-[[2-(4-tert-butylphenyl)-4-methyl-pyrimidine-5-carbonyl]amino]butanoyl]amino]-10,13-dioxo-9,12-diazatricyclo[13.3.1.12,6]icosa-1(18),2(20),3,5,15(19),16-hexaene-8-carboxamide] | 0.025 | 1.1 |  | 
Cc1nc(-c2ccc(C(C)(C)C)cc2)nc(N)c1C(=O)N[C@@H](CCN)C(=O)N(C)[C@@H]1C(=O)N[C@@H](C)C(=O)N[C@H](C(=O)NCC#N)Cc2ccc(OCCN)c(c2)-c2cc1ccc2OCCN (racemic) [Compound 426, rac-(8S,11S,14S)-3,18-bis(2-aminoethoxy)-N-(cyanomethyl)-11-methyl-14-[methyl-[rac-(2S)-4-amino-2-[[4-amino-2-(4-tert-butylphenyl)-6-methyl-pyrimidine-5-carbonyl]amino]butanoyl]amino]-10,13-dioxo-9,12-diazatricyclo[13.3.1.12,6]icosa-1(18),2(20),3,5,15(19),16-hexaene-8-carboxamide] | 0.023 | 0.12 |  | 
CCCCc1ccc(-c2ccc(C(=O)N[C@@H](CCN)C(=O)N(C)[C@@H]3C(=O)N[C@@H](C)C(=O)N[C@H](C(=O)NCC#N)Cc4ccc(OCCN)c(c4)-c4cc3ccc4OCCN)c(C)n2)cc1 (racemic) [Compound 207, rac-(8S,11S,14S)-3,18-bis(2-aminoethoxy)-N-(cyanomethyl)-11-methyl-14-[methyl-[rac-(2S)-4-amino-2-[[6-(4-butylphenyl)-2-methyl-pyridine-3-carbonyl]amino]butanoyl]amino]-10,13-dioxo-9,12-diazatricyclo[13.3.1.12,6]icosa-1(18),2(20),3,5,15(19),16-hexaene-8-carboxamide] | 0.017 | 0.1 |  | 
C[C@@H]1NC(=O)[C@@H](N(C)C(=O)[C@H](CCN)NC(=O)c2cnc(-c3ccc(C(C)(C)C)cc3)cc2N)c2ccc(OCCN)c(c2)-c2cc(ccc2OCCN)C[C@@H](C(=O)NCC#N)NC1=O (racemic) [Compound 411, rac-(8S,11S,14S)-3,18-bis(2-aminoethoxy)-N-(cyanomethyl)-11-methyl-14-[methyl-[rac-(2S)-4-amino-2-[[4-amino-6-(4-tert-butylphenyl)pyridine-3-carbonyl]amino]butanoyl]amino]-10,13-dioxo-9,12-diazatricyclo[13.3.1.12,6]icosa-1(18),2(20),3,5,15(19),16-hexaene-8-carboxamide] | 0.016 | 0.25 |  | 
CCCCCOc1ccc(-c2cc(C)c(C(=O)N[C@@H](CCN)C(=O)N(C)[C@@H]3C(=O)N[C@@H](C)C(=O)N[C@H](C(=O)NCC#N)Cc4ccc(OCCN)c(c4)-c4cc3ccc4OCCN)c(C)n2)cc1 (racemic) [Compound 362, rac-(8S,11S,14S)-3,18-bis(2-aminoethoxy)-N-(cyanomethyl)-11-methyl-14-[methyl-[rac-(2S)-4-amino-2-[[2,4-dimethyl-6-(4-pentoxyphenyl)pyridine-3-carbonyl]amino]butanoyl]amino]-10,13-dioxo-9,12-diazatricyclo[13.3.1.12,6]icosa-1(18),2(20),3,5,15(19),16-hexaene-8-carboxamide] | 0.063 | 0.25 |  | 
Cc1nc(-c2ccc(C(C)(C)C)cc2)nc(C)c1C(=O)N[C@@H](CCN)C(=O)N(C)[C@@H]1C(=O)N[C@@H](C)C(=O)N[C@H](C(=O)O)Cc2ccc(OCCN)c(c2)-c2cc1ccc2OCCN (racemic) [Compound 645, rac-(8S,11S,14S)-3,18-bis(2-aminoethoxy)-11-methyl-14-[methyl-[rac-(2S)-4-amino-2-[[2-(4-tert-butylphenyl)-4,6-dimethyl-pyrimidine-5-carbonyl]amino]butanoyl]amino]-10,13-dioxo-9,12-diazatricyclo [13.3.1.12,6]icosa-1(18),2(20),3,5,15(19), 16-hexaene-8-carboxylic acid] |  |  | 0.52 | 0.4
